From article PMC6364417, “Kinase inhibitor library screening identifies synergistic drug combinations effective in sensitive and resistant melanoma cells” (Journal of Experimental & Clinical Cancer Research : CR, 2019)

Tests used:
Assay in all cases: Kinase inhibitor library screening, PrestoBlue cell viability, 1 or 10 μM, 72 h
[1] = tested on: A375-XP cells (Vemurafenib-resistant); details: A375 XP; for Cell viability in kinase inhibitor library screening, A375 XP, 1μΜ / Cell viability in kinase inhibitor library screening, A375 XP, 10μΜ: 72 h
[2] = tested on: IGR37-GP cells (Dabrafenib-resistant); details: IGR37 GP; for Cell viability in kinase inhibitor library screening, IGR37 GP, 10μΜ / Cell viability in kinase inhibitor library screening, IGR37 GP, 1μΜ: 72 h; for Cell viability in kinase inhibitor library screening, IGR37 GP, 1μΜ / cell viability (kinase inhibitor library screening): in %
[3] = tested on: 501Mel-GP cells (Dabrafenib-resistant); details: 501Mel GP, in %; for Cell viability in kinase inhibitor library screening, 501Mel GP, 1μΜ / Cell viability in kinase inhibitor library screening, 501Mel GP, 10μΜ: 72 h
[4] = tested on: 501Mel-XP cells (Vemurafenib-resistant); details: 501Mel XP, in %; for Cell viability in kinase inhibitor library screening, 501Mel XP, 1μΜ / Cell viability in kinase inhibitor library screening, 501Mel XP, 10μΜ: 72 h
A375 cells (parental) = details: A375 Parental; for Cell viability in kinase inhibitor library screening, A375 Parental, 10μΜ / Cell viability in kinase inhibitor library screening, A375 Parental, 1μΜ: 72 h
[5] = tested on: A375-GP cells (Dabrafenib-resistant); details: A375 GP; for Cell viability in kinase inhibitor library screening, A375 GP, 1μΜ / Cell viability in kinase inhibitor library screening, A375 GP, 10μΜ: 72 h; for cell viability (kinase inhibitor library screening): in %
IGR37 cells (parental) = details: IGR37 Parental, in %; for Cell viability in kinase inhibitor library screening, IGR37 Parental, 10μΜ / Cell viability in kinase inhibitor library screening, IGR37 Parental, 1μΜ: 72 h
[6] = tested on: IGR37-XP cells (Vemurafenib-resistant); details: IGR37 XP; for Cell viability in kinase inhibitor library screening, IGR37 XP, 10μΜ / Cell viability in kinase inhibitor library screening, IGR37 XP, 1μΜ: 72 h; for Cell viability in kinase inhibitor library screening, IGR37 XP, 1μΜ / cell viability (kinase inhibitor library screening): in %
501Mel cells (parental) = details: 501Mel Parental, in %; for Cell viability in kinase inhibitor library screening, 501Mel Parental, 1μΜ / Cell viability in kinase inhibitor library screening, 501Mel Parental, 10μΜ: 72 h
In short: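 Treatment: 72 h with inhibitor. Detection: PrestoBlue, plate reader. Output: viability as % untreated control. Replicates: duplicate minimum. Lines: parental plus Vemurafenib- or Dabrafenib-resistant derivatives.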

SMILES | Cell viability in kinase inhibitor library screening, A375 XP, 1μΜ [1] | Cell viability in kinase inhibitor library screening, A375 XP, 10μΜ ([1]; 10μΜ) | Cell viability in kinase inhibitor library screening, IGR37 GP, 10μΜ ([2]; 10μΜ) | Cell viability in kinase inhibitor library screening, IGR37 GP, 1μΜ ([2]; 1μΜ) | Cell viability in kinase inhibitor library screening, 501Mel GP, 1μΜ ([3]; 1μΜ) | Cell viability in kinase inhibitor library screening, 501Mel GP, 10μΜ ([3]; 10μΜ) | Cell viability in kinase inhibitor library screening, 501Mel XP, 1μΜ ([4]; 1μΜ) | Cell viability in kinase inhibitor library screening, 501Mel XP, 10μΜ ([4]; 10μΜ) | Cell viability in kinase inhibitor library screening, A375 Parental, 10μΜ (A375 cells (parental); 10μΜ) | Cell viability in kinase inhibitor library screening, A375 Parental, 1μΜ (A375 cells (parental)) | Cell viability in kinase inhibitor library screening, A375 GP, 1μΜ ([5]; 1μΜ) | Cell viability in kinase inhibitor library screening, A375 GP, 10μΜ ([5]; 10μΜ) | Cell viability in kinase inhibitor library screening, IGR37 Parental, 10μΜ (IGR37 cells (parental); 10μΜ) | Cell viability in kinase inhibitor library screening, IGR37 XP, 10μΜ ([6]; 10μΜ) | Cell viability in kinase inhibitor library screening, IGR37 XP, 1μΜ ([6]; 1μΜ) | Cell viability in kinase inhibitor library screening, 501Mel Parental, 1μΜ (501Mel cells (parental)) | Cell viability in kinase inhibitor library screening, 501Mel Parental, 10μΜ (501Mel cells (parental); 10μΜ) | Cell viability in kinase inhibitor library screening, IGR37 Parental, 1μΜ (IGR37 cells (parental); 1μΜ) | further results
NCC(=O)Nc1ccc(-n2nc(C(F)(F)F)cc2-c2ccc3c(ccc4ccccc43)c2)cc1 [OSU-03012] | 91.6 | 0.7 | 2.3% | 99.0 | 94.0 | -0.274 | 90.0 | -0.352 | 0.756 | 91.6 | 89.7 | 0.547 | 0.5 | 1.4% | 109.9 | 91.0 | 0.3 |  | 
CCCS(=O)(=O)Nc1ccc(F)c(C(=O)c2c[nH]c3ncc(-c4ccc(Cl)cc4)cc23)c1F [Vemurafenib (PLX4032)] | 98.7 | 76.6 | 88.3% | 94.0 | 104.7 | 81.3 | 94.9 | 68.0 | 14.6 | 28.6 | 92.1 | 68.9 | 34.4 | 67.9% | 97.0 | 65.5 | 61.7 | 43.2 | 
CC(C)n1nc(-c2ccc3oc(N)nc3c2)c2c(N)ncnc21 [INK 128] | 19.9 | 12.7 | 16.8% | 44.7 | 17.2 | 6.6 | 11.6 | 2.4 | 13.5 | 19.9 | 21.6 | 13.0 | 13.5 | 6.1% | 27.3 | 15.4 | 5.9 | 22.4 | 
COc1cc(Nc2ncc(F)c(Nc3ccc4c(n3)N(COP(=O)([O-])[O-])C(=O)C(C)(C)O4)n2)cc(OC)c1OC.[Na+].[Na+] |  |  |  |  |  |  |  |  |  |  |  |  |  |  |  |  |  |  | cell viability (kinase inhibitor library screening) ([1]; 10μΜ, in %): 70.0; cell viability (kinase inhibitor library screening) ([2]; 1μΜ): 89.3; cell viability (kinase inhibitor library screening) ([2]; 10μΜ): 37.8; cell viability (kinase inhibitor library screening) ([3]; 1μΜ): 98.3; cell viability (kinase inhibitor library screening) ([3]; 10μΜ): 70.8; cell viability (kinase inhibitor library screening) ([4]; 1μΜ): 98.8; cell viability (kinase inhibitor library screening) ([4]; 10μΜ): 37.9; cell viability (kinase inhibitor library screening) (A375 cells (parental); 10μΜ, in %): 56.1; cell viability (kinase inhibitor library screening) ([5]; 1μΜ): 95.3; cell viability (kinase inhibitor library screening) ([5]; 10μΜ): 57.6; cell viability (kinase inhibitor library screening) (IGR37 cells (parental); 1μΜ): 103.8; cell viability (kinase inhibitor library screening) (IGR37 cells (parental); 10μΜ): 87.6; cell viability (kinase inhibitor library screening) ([6]; 1μΜ): 94.1; cell viability (kinase inhibitor library screening) ([6]; 10μΜ): 20.4; cell viability (kinase inhibitor library screening) (501Mel cells (parental); 10μΜ): 84.1
